Test results published in patent publication EP4477653A1 (Perha Pharmaceuticals, priority 2023, dated 2024).

Molecular target: T1, human recombinant A3AR (expressed in HEK-293 cells) (Homo sapiens, UniProt P0DMS8)
T1 construct: host or cells: HEK-293 cells
T1 sequence (P0DMS8 1-318): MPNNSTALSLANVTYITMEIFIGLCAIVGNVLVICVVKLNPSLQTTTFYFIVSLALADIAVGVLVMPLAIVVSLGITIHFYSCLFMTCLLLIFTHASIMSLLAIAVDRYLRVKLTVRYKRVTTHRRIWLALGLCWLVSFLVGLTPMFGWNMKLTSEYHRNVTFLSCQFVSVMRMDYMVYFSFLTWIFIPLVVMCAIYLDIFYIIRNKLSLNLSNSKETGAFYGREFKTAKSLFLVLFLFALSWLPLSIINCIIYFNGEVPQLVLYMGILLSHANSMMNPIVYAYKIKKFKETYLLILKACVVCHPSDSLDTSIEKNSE
Assay: Adenosine receptors antagonism assay (Eurofins), [125I]-AB-MECA radioligand competition
Format: binding
Details: [125I]-AB-MECA 0.15 nM, r.t., 120 min; IC50 from dose-response curves; read-out: Potency Class A3AR

SMILES | IC50 [µM]
CCC(CC)Nc1cc(NC2CCc3ccccc32)c2nnc(C(C)C)n2n1 (racemic) [compound 81, N6-(1-ethylpropyl)-N8-indan-1-yl-3-isopropyl-[1,2,4]triazolo[4,3-b]pyridazine-6,8-diamine] | 0.01 to 0.1
CCC(C)Nc1cc(NCc2ccccn2)c2nnc(C3CC3)n2n1 (racemic) [compound 193, N6-(sec-butyl)-3-cyclopropyl-N8-(pyridin-2-ylmethyl)-[1,2,4]triazolo[4,3-b]pyridazine-6,8-diamine] | 0.001 to 0.01
CC(C)c1nnc2c(NCc3ccccc3)cc(N[C@H](CO)[C@@H](C)O)nn12 (stereo in doubt) [compound 5, (2R,3R)-2-[[8-(benzylamino)-3-isopropyl-[1,2,4]triazolo[4,3-b]pyridazin-6-yl]amino]butane-1,3-diol] | 0.1 to 1
CC[C@H](CO)Nc1cc(NCc2ccccc2)c2nnc(C(C)C)n2n1 [compound 1, (2R)-2-[[8-(benzylamino)-3-isopropyl-[1,2,4]triazolo[4,3-b]pyridazin-6-yl]amino]butan-1-ol] | 0.01 to 0.1
CC[C@@H](CO)Nc1cc(NCc2ccccc2)c2nnc(C(C)C)n2n1 [compound 2, (2S)-2-[[8-(benzylamino)-3-isopropyl-[1,2,4]triazolo[4,3-b]pyridazin-6-yl]amino]butan-1-ol] | 0.01 to 0.1
CC(C)c1nnc2c(NCc3ccccc3)cc(NC(CO)CO)nn12 [compound 3, 2-[[8-(benzylamino)-3-isopropyl-[1,2,4]triazolo[4,3-b]pyridazin-6-yl]amino]propane-1,3-diol] | 0.1 to 1
CC(C)c1nnc2c(NCc3ccccc3)cc(N3CCOCC3)nn12 [compound 6, N-benzyl-3-isopropyl-6-morpholino-[1,2,4]triazolo[4,3-b]pyridazin-8-amine] | 0.1 to 1
CC(C)c1nnc2c(NCc3ccccc3)cc(NCCOCCOCCN)nn12 [compound 8, N6-[2-[2-(2-aminoethoxy)ethoxy]ethyl]-N8-benzyl-3-isopropyl-[1,2,4]triazolo[4,3-b]pyridazine-6,8-diamine] | 0.1 to 1
CC(C)c1nnc2c(NCc3ccccc3)cc(NCCCO)nn12 [compound 9, 3-[[8-(benzylamino)-3-isopropyl-[1,2,4]triazolo[4,3-b]pyridazin-6-yl]amino]propan-1-ol] | 0.1 to 1
COCCCNc1cc(NCc2ccccc2)c2nnc(C(C)C)n2n1 [compound 10, N8-benzyl-3-isopropyl-N6-(3-methoxypropyl)-[1,2,4]triazolo[4,3-b]pyridazine-6,8-diamine] | 0.01 to 0.1
CC(C)c1nnc2c(NCc3ccccc3)cc(NCCO)nn12 [compound 11, 2-[[8-(benzylamino)-3-isopropyl-[1,2,4]triazolo[4,3-b]pyridazin-6-yl]amino]ethanol] | 0.1 to 1
COCCNc1cc(NCc2ccccc2)c2nnc(C(C)C)n2n1 [compound 12, N8-benzyl-3-isopropyl-N6-(2-methoxyethyl)-[1,2,4]triazolo[4,3-b]pyridazine-6,8-diamine] | 0.1 to 1
CC(C)c1nnc2c(NCc3ccccc3)cc(NCCCCO)nn12 [compound 13, 4-[[8-(benzylamino)-3-isopropyl-[1,2,4]triazolo[4,3-b]pyridazin-6-yl]amino]butan-1-ol] | 0.01 to 0.1
COCCCCNc1cc(NCc2ccccc2)c2nnc(C(C)C)n2n1 [compound 14, N8-benzyl-3-isopropyl-N6-(4-methoxybutyl)-[1,2,4]triazolo[4,3-b]pyridazine-6,8-diamine] | 0.01 to 0.1
CC(C)c1nnc2c(NCc3ccccc3)cc(NCCCCCO)nn12 [compound 15, 5-[[8-(benzylamino)-3-isopropyl-[1,2,4]triazolo[4,3-b]pyridazin-6-yl]amino]pentan-1-ol] | 0.1 to 1
COCCCCCNc1cc(NCc2ccccc2)c2nnc(C(C)C)n2n1 [compound 16, N8-benzyl-3-isopropyl-N6-(5-methoxypentyl)-[1,2,4]triazolo[4,3-b]pyridazine-6,8-diamine] | 0.1 to 1
CCC(CC)Nc1cc(NCc2ccccc2)c2nnc(C(C)C)n2n1 [compound 18, N8-benzyl-N6-(1-ethylpropyl)-3-isopropyl-[1,2,4]triazolo[4,3-b]pyridazine-6,8-diamine] | 0.001 to 0.01
CC(C)c1nnc2c(NCc3ccccc3)cc(N[C@@H]3CCOC3)nn12 [compound 19, N8-benzyl-3-isopropyl-N6-[(3R)-tetrahydrofuran-3-yl]-[1,2,4]triazolo[4,3-b]pyridazine-6,8-diamine] | 0.01 to 0.1
CC(C)c1nnc2c(NCc3ccccc3)cc(N[C@@H]3CCCOC3)nn12 [compound 21, N8-benzyl-3-isopropyl-N6-[(3R)-tetrahydropyran-3-yl]-[1,2,4]triazolo[4,3-b]pyridazine-6,8-diamine] | 0.01 to 0.1

SMILES | IC50 [µM]
CC(C)c1nnc2c(NCc3ccccc3)cc(N[C@H]3CCCOC3)nn12 [compound 22, N8-benzyl-3-isopropyl-N6-[(3S)-tetrahydropyran-3-yl]-[1,2,4]triazolo[4,3-b]pyridazine-6,8-diamine] | 0.01 to 0.1
CC(C)c1nnc2c(NCc3ccccc3)cc(NC3CCOCC3)nn12 [compound 23, N8-benzyl-3-isopropyl-N6-tetrahydropyran-4-yl-[1,2,4]triazolo[4,3-b]pyridazine-6,8-diamine] | 0.01 to 0.1
CC(=O)NCCCNc1cc(NCc2ccccc2)c2nnc(C(C)C)n2n1 [compound 24, N-[3-[[8-(benzylamino)-3-isopropyl-[1,2,4]triazolo[4,3-b]pyridazin-6-yl]amino]propyl]acetamide] | 0.1 to 1
CC(C)c1nnc2c(NCc3ccccc3)cc(NCCC(N)=O)nn12 [compound 25, 3-[[8-(benzylamino)-3-isopropyl-[1,2,4]triazolo[4,3-b]pyridazin-6-yl]amino]propanamide] | 0.1 to 1
CNC(=O)CCNc1cc(NCc2ccccc2)c2nnc(C(C)C)n2n1 [compound 26, 3-[[8-(benzylamino)-3-isopropyl-[1,2,4]triazolo[4,3-b]pyridazin-6-yl]amino]-N-methyl-propanamide] | 0.01 to 0.1
CC(C)c1nnc2c(NCc3ccccc3)cc(NCCC(=O)N(C)C)nn12 [compound 27, 3-[[8-(benzylamino)-3-isopropyl-[1,2,4]triazolo[4,3-b]pyridazin-6-yl]amino]-N,N-dimethyl-propanamide] | 0.1 to 1
COC(=O)CCNc1cc(NCc2ccccc2)c2nnc(C(C)C)n2n1 [compound 28, methyl 3-[[8-(benzylamino)-3-isopropyl-[1,2,4]triazolo[4,3-b]pyridazin-6-yl]amino]propanoate] | 0.01 to 0.1
CCOC(=O)CCNc1cc(NCc2ccccc2)c2nnc(C(C)C)n2n1 [compound 29, ethyl 3-[[8-(benzylamino)-3-isopropyl-[1,2,4]triazolo[4,3-b]pyridazin-6-yl]amino]propanoate] | 0.01 to 0.1
CC[C@H](CO)Nc1cc(NCc2ccccc2)c2nnc(C3CC3)n2n1 [compound 30, (2R)-2-[[8-(benzylamino)-3-cyclopropyl-[1,2,4]triazolo[4,3-b]pyridazin-6-yl]amino]butan-1-ol] | 0.1 to 1
COCCCNc1cc(NCc2ccccc2)c2nnc(C3CC3)n2n1 [compound 31, N8-benzyl-3-cyclopropyl-N6-(3-methoxypropyl)-[1,2,4]triazolo[4,3-b]pyridazine-6,8-diamine] | 0.01 to 0.1
COCCCNc1cc(NCc2ccccc2)c2nnc(C)n2n1 [compound 32, N8-benzyl-N6-(3-methoxypropyl)-3-methyl-[1,2,4]triazolo[4,3-b]pyridazine-6,8-diamine] | 0.1 to 1
COCCCNc1cc(NCc2ccccc2)c2nnc(-c3ccccc3)n2n1 [compound 34, N8-benzyl-N6-(3-methoxypropyl)-3-phenyl-[1,2,4]triazolo[4,3-b]pyridazine-6,8-diamine] | 0.1 to 1
CC[C@H](CO)Nc1cc(NCc2ccccc2)c2nnc(-c3ccccc3)n2n1 [compound 35, (2R)-2-[[8-(benzylamino)-3-phenyl-[1,2,4]triazolo[4,3-b]pyridazin-6-yl]amino]butan-1-ol] | 0.01 to 0.1
COCCCNc1cc(NCc2ccccc2)c2nnc(C(F)(F)F)n2n1 [compound 36, N8-benzyl-N6-(3-methoxypropyl)-3-(trifluoromethyl)-[1,2,4]triazolo[4,3-b]pyridazine-6,8-diamine] | 0.01 to 0.1
CC[C@H](CO)Nc1cc(NCc2ccccc2)c2nnc(C(F)(F)F)n2n1 [compound 37, (2R)-2-[[8-(benzylamino)-3-(trifluoromethyl)-[1,2,4]triazolo[4,3-b]pyridazin-6-yl]amino]butan-1-ol] | 0.01 to 0.1
CC[C@H](CO)Nc1cc(NCc2ccccc2O)c2nnc(C(C)C)n2n1 [compound 38, 2-[[[6-[[(1R)-1-(hydroxymethyl)propyl]amino]-3-isopropyl-[1,2,4]triazolo[4,3-b]pyridazin-8-yl]amino]methyl]phenol] | 0.001 to 0.01
COCCCNc1cc(NCc2ccccc2O)c2nnc(C(C)C)n2n1 [compound 39, 2-[[[3-isopropyl-6-(3-methoxypropylamino)-[1,2,4]triazolo[4,3-b]pyridazin-8-yl]amino]methyl]phenol] | 0.01 to 0.1
CCC(CC)Nc1cc(NCc2ccccc2O)c2nnc(C(C)C)n2n1 [compound 40, 2-[[[6-(1-ethylpropylamino)-3-isopropyl-[1,2,4]triazolo[4,3-b]pyridazin-8-yl]amino]methyl]phenol] | 0.001 to 0.01
CCC(CC)Nc1cc(NCc2cccc(O)c2)c2nnc(C(C)C)n2n1 [compound 41, 3-[[[6-(1-ethylpropylamino)-3-isopropyl-[1,2,4]triazolo[4,3-b]pyridazin-8-yl]amino]methyl]phenol] | 0.001 to 0.01
